Test results as given in patent EP2276483B1, “SOLID FORMS COMPRISING (+)-2-[1-(3-ETHOXY-4-METHOXYPHENYL)-2-METHYLSULFONYLETHYL]-4-ACETYLAMINOISOINDOLINE-1,3-DIONE, COMPOSITIONS THEREOF, AND USES THEREOF” (CELGENE CORPORATION, priority 2008, dated 2009).

How the values were obtained:
[1] = system: TNF-α; experiment: Human Whole Blood LPS-induced TNF-α assay; format: cell-based
Experimental: The ability of compounds to inhibit LPS-induced-TNF-α production by human whole blood was measured essentially as described below for the LPS-induced TNF-α assay in human PBMC, except that freshly drawn whole blood was used instead of PBMC.
Lipopolysaccharide (LPS) is an endotoxin produced by gram-negative bacteria such as E. coli which induces production of many pro-inflammatory cytokines, including TNF-α. In peripheral blood mononuclear cells (PBMC), the TNF-α produced in response to LPS is derived from monocytes, which comprise approximately 5-20% of the total PBMC. Compounds were tested for the ability to inhibit LPS-induced TNF-α production from human PBMC as previously described (Muller et al., 1996, J. Med. Chem., 39:3238). PBMC from normal donors were obtained by Ficoll Hypaque (Pharmacia, Piscataway, NJ, USA) density centrifugation. Cells were cultured in RPMI (Life Technologies, Grand Island, NY, USA) supplemented with 10% AB± human serum (Gemini Bio-products, Woodland, CA, USA), 2 mM L-glutamine, 100 U/ml penicillin, and 100 µg/ml streptomycin (Life Technologies).
PBMC (2 x 10^5 cells) were plated in 96-well flat-bottom Costar tissue culture plates (Coming, NY, USA) in triplicate. Cells were stimulated with LPS (Sigma, St. Louis, MO, USA) at 100 ng/ml in the absence or presence of compounds. […]

[2] = biological target: T1, PDE6 from bovine retinal rod outer segments (Bos taurus, UniProt P11541+P23439); experiment: PDE6 enzyme assay; format: biochemical
T1 construct: PDE6 from bovine retinal rod outer segments; from tissue; host or cells: bovine retinal rod outer segments
T1 sequence (P11541 2-856 limits assumed): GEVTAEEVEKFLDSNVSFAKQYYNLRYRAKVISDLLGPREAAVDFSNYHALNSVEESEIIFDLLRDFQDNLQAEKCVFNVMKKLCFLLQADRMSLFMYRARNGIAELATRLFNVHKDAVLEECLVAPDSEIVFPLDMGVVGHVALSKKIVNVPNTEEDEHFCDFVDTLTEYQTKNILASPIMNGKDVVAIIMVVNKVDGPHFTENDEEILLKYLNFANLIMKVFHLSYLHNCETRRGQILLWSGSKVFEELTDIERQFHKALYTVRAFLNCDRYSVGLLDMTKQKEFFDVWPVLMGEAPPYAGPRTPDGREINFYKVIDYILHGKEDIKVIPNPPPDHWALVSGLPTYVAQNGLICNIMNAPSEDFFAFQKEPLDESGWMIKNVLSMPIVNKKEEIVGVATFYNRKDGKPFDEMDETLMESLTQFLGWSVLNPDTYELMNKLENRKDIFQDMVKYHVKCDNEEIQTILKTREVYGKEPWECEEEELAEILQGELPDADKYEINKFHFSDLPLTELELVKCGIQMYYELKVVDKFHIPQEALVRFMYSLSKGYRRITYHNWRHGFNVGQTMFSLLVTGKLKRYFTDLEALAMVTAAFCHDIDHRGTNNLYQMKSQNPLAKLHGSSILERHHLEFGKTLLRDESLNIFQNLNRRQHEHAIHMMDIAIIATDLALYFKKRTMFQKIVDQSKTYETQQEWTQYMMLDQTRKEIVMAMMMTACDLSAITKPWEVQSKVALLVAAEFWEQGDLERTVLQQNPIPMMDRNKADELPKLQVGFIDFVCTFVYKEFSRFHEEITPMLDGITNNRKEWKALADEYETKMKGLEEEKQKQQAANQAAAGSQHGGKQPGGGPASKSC
T1 sequence (P23439 2-850 limits assumed): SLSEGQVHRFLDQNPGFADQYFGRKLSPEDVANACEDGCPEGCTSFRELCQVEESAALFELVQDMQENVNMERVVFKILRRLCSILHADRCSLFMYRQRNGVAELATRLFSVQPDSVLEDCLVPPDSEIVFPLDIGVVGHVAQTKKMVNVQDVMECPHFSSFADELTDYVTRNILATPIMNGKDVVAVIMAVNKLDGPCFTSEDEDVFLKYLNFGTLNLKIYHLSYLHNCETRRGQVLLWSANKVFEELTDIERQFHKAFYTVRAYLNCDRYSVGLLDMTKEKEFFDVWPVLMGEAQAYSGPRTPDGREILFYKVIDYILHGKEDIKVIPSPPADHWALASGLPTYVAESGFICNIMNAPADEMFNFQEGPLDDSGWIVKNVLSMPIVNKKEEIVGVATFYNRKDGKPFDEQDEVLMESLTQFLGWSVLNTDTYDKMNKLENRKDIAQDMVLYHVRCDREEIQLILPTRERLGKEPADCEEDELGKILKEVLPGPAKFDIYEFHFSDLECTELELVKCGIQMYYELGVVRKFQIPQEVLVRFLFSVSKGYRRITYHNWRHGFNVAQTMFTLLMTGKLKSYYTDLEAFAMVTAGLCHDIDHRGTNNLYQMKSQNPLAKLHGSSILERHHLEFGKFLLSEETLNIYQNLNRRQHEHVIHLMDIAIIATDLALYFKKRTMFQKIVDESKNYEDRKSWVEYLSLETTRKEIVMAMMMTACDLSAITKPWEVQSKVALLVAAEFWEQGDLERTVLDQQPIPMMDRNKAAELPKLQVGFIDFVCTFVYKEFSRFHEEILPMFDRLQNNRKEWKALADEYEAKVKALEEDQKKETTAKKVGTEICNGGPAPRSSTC

CCOc1cc(C(CS(C)(=O)=O)N2C(=O)c3cccc(NC(C)=O)c3C2=O)ccc1OC (single isomer, unassigned; (+)) [Compound A, (+)-2-[1-(3-ethoxy-4-methoxyphenyl)-2-methylsulfonylethyl]-4-acetylaminoisoindoline-1,3-dione]
IC50 [1]: 294 nM
PDE Specificity Ratio PDE4/PDE6 ([2]; from above data): >40000 fold
inhibition at 10 µM ([2]; read-out: PDE6 (% inhib at 10 µM)): -6%
